{
  "source": "patent US20120172344A1",
  "about": "“INSULIN-PRODUCING CELL INDUCER, GLUCOSE INTAKE ENHANCER, AND THERAPEUTIC AGENT FOR DIABETES OR DIABETES COMPLICATIONS” (KYUSHU UNIVERSITY, NATIONAL UNIVERSITY CORPORATION, priority 2009, published 2012)",
  "tested_on": "AKT and Glut4",
  "assay": "Experimental Example 3: intramuscular expression of AKT and Glut4 (western blot, immunostaining)",
  "assay_type": "in vivo, mouse",
  "description": "Primary antibodies: Anti-insulin antibody (dilution rate 1:500; DAKO), anti-glucagon antibody (dilution rate 1:500; Linco Research Inc.), anti-DBA antibody (dilution rate 1:300; Vector Laboratories), anti-Pdx-1 antibody (dilution rate 1:1000; kindly provided by Chris V. E. Wright, Vanderbilt University), anti-collagen type IV antibody (dilution rate 1:250; PROGEN Biotechnik), and anti-Glut 4 antibody (dilution rate 1:1000; Chemicon).\nThe primary antibodies were detected by immunofluorescence labeling using secondary antibodies conjugated with Alexa 488 or Alexa 568 (1:200; Molecular Probes); third antibody conjugated with biotin-labeled secondary antibodies and streptavidin Alexa 488 or Alexa 568 (1:800; Vector Laboratories); or by an immunoperoxidase staining method using biotin-labeled secondary antibodies. Staining was visualized with diaminobenzidine. The sections were counterstained with hematoxylin. Images were captured on a BZ9000 microscope (Keyence), or in the confocal mode on an LSM 510 META confocal microscope (Carl Zeiss). Immunofluorescence intensity was measured in random fields (n=30/section) using LSM Zeiss software, and the result was expressed as average pixel intensity.\nMice were sacrificed, and the EDL, tibialis anterior, and gastrocnemius muscles were removed and snap-frozen in liquid nitrogen. […]\nProtein levels were quantified using NIH Image. […]",
  "data": [
    {"smiles": "C[C@]12CC[C@@H]3c4ccc(O)cc4CC[C@H]3[C@@H]1CC[C@@H]2O", "note": "[estradiol, 17β-estradiol]", "values": [
      {"measurement": "glucose transporter (Glut4) in muscle cells", "setting": "Tg mice in Tx-E group", "value": "increased"},
      {"measurement": "expression of intramuscular AKT and Glut4", "setting": "Tg mice, Tx + 17β-estradiol pellet s.c.", "value": "upregulates"}
    ]}
  ]
}
